Reference: patent US20260335453A1, “ISOINDOLINONE-GLUTARIMIDE ANTIBODY CONJUGATES, AND USES THEREOF” (FIREFLY BIO, INC., priority 2023, published 2026)

Key:
[1] = system: CAL51 cells; experiment: Cell proliferation (Cell Titer Glow), CAL51; type: cell-based; conditions: Homo sapiens, CAL-51; IG compounds, cell killing, 72 h
Experimental: (§1) Exemplary isoindolinone-glutarimide (IG) compounds of Table 1a, 1b and 1c were prepared and characterized according to the Examples herein. Certain exemplary IG compounds of(Table 1a were tested for their effects in inhibiting cellular proliferation, including CAL1 WSU-DLCL2, NCI-N87 and SKBR3. CAL51 is a human breast adenocarcinoma cell line with triple-negative status for expression of estrogen, progesterone and HER2 receptors. WSU-DLCL2 is a human B-Cell non-Hodgkin lymphoma cell line that expresses high levels of CD22. NCI-N87 is a human epithelial cell line established from a gastric carcinoma; SKBR3 is a human epithelial cell line established from a breast adenocarcinoma; both NCI-N87 and SKBR3 cell lines express high levels of HER2 receptor. […]
(§2) One day prior to treatment with compounds or IGAC, cells were plated in white 96-well plates (SKBR: 3000 cells/well; CAL-51: 4000 cells/well). Compounds or ADCs were added in a serial-dilution manner reaching the indicated concentrations. Plates were incubated at 37 degrees for 96h (ADCs) or 72h (compounds) whereafter a 1:10 dilution of Cell Titer Glow was used to measure relative cell numbers after 10 min of incubation at room temperature.

[2] = system: WSU-DLCL2 cells; experiment: Cell proliferation (Cell Titer Glow), WSU-DLCL2; type: cell-based; conditions: Homo sapiens, WSUDLCL2; IG compounds, cell killing, 72 h
Experimental: (§3) Exemplary isoindolinone-glutarimide (IG) compounds of Table 1a, 1b and 1c were prepared and characterized according to the Examples herein. Certain exemplary IG compounds of(Table 1a were tested for their effects in inhibiting cellular proliferation, including CAL1 WSU-DLCL2, NCI-N87 and SKBR3. CAL51 is a human breast adenocarcinoma cell line with triple-negative status for expression of estrogen, progesterone and HER2 receptors. WSU-DLCL2 is a human B-Cell non-Hodgkin lymphoma cell line that expresses high levels of CD22. NCI-N87 is a human epithelial cell line established from a gastric carcinoma; SKBR3 is a human epithelial cell line established from a breast adenocarcinoma; both NCI-N87 and SKBR3 cell lines express high levels of HER2 receptor.
(§4) Exemplary embodiments of the isoindolinone-glutarimide antibody conjugates (IGAC) of Formula I are compiled in Table 3. Assessment of IGAC biological activity and other properties may be conducted according to the methods of Example 102. In some instances, the Cell proliferation dose response IC50 value is an average of repetitive assays. Certain exemplary IGAC were tested for their effects in inhibiting cellular proliferation, including CAL51; WSU-DLCL2, NCI-N87 and SKBR3 cell lines. CAL51 is a human breast adenocarcinoma cell line with triple-negative status for expression of estrogen, progesterone and HER2 receptors. WSU-DLCL2 is a human B-Cell non-Hodgkin lymphoma cell line that expresses high levels of CD22. NCI-N87 is a human epithelial cell line established from a gastric carcinoma; SKBR3 is a human epithelial cell line established from a breast adenocarcinoma; both NCI-N87 and SKBR3 cell lines express high levels of HER2 receptor.
On the day of treatment, 10,000 suspension cells/well were plated in white 96-well plates. Compounds or ADCs were added in a serial-dilution manner reaching the indicated concentrations. Plates were incubated at 37 degrees for 72 h whereafter a 1:10 dilution of Cell Titer Glow was used to measure relative cell numbers after 10 min of incubation at room temperature.

[3] = system: SKBR3 cells; experiment: Cell proliferation (Cell Titer Glow), SKBR3; type: cell-based; conditions: Homo sapiens, SK-BR-3; IG compounds, cell killing, 72 h
Experimental: as §1, §2

[4] = system: NCI-N87 cells; experiment: Cell proliferation (Cell Titer Glow), NCI-N87; type: cell-based; conditions: Homo sapiens, IG compounds, cell killing, 72 h
Experimental: as §3, §4
One day prior to treatment with compounds or IGAC, cells were plated in white 96-well plates (SKBR: 3000 cells/well; CAL-51: 4000 cells/well). Compounds or ADCs were added in a serial-dilution manner reaching the indicated concentrations. […]

[5] = system: CAL51 cells; experiment: Degradation assay evaluated by immunofluorescence staining, CAL51; type: cell-based, human; conditions: Homo sapiens, CAL-51, CAL51, 6 h
Experimental: (§5) One day prior to treatment with compounds, black 96 well plates were coated with fibronectin (0.2 μg/ml in PBS) for 45 min at room temperature and subsequently washed with PBS. CAL-51 or SKBR3 cells were seeded at 30K cells/well (1001) and incubated overnight at 37° C. whereafter compounds were added reaching indicated concentrations. 6 h after treatment the medium was removed, cells were washed with PBS and fixed with 10% formalin for 20 mins at room temperature. Following two PBS washes (150 μl), cells were permeabilized in 0.1% Triton X-100 in PBS for 8 mins at room temperature and subsequently washed again twice with PBS. Cells were blocked thereafter with 1% BSA in PBS for 45 mins. Primary antibody was diluted in blocking buffer and incubated with the cells overnight at 4° C. After three washes with PBS, cells were incubated with secondary antibody for 1 h at RT, washed and subsequently images were taken on an Operetta High-Content Imager.
(§6) For the determination of the DC50, a custom algorithm implemented in the PerkinElmer image analysis software Harmony-Acapella® was used.

[6] = system: SKBR3 cells; experiment: Degradation assay evaluated by immunofluorescence staining, SKBR3; type: cell-based; conditions: Homo sapiens, SK-BR-3, SKBR3, 6 h
Experimental: as §5, §6

SMILES	IC50 [1] [nM]	IC50 [2] [nM]	IC50 [3] [nM]	IC50 [4] [nM]	DC50 [5] [nM]	Dmax [5] [%]	DC50 [6] [nM]	Dmax [6] [%]
O=C1CCC(N2Cc3c(ccc(CNC(=O)Nc4cccc(C5(C(F)(F)F)CC5)c4)c3O)C2=O)C(=O)N1 (stereo not shown) [IG-42, 1-((2-(2,6-dioxopiperidin-3-yl)-4-hydroxy-1-oxoisoindolin-5-yl)methyl)-3-(3-(1-(trifluoromethyl)cyclopropyl)phenyl)urea]	25	1.43	2.73	2.57	< 5.41	96.1 ± 5.89	2	88.6
CC(C)c1cc(NC(=O)NCc2ccc3c(c2O)CN(C2CCC(=O)NC2=O)C3=O)ccc1C(F)(F)F (stereo not shown) [IG-51, 1-((2-(2,6-dioxopiperidin-3-yl)-4-hydroxy-1-oxoisoindolin-5-yl)methyl)-3-(3-isopropyl-4-(trifluoromethyl)phenyl)urea]	–	10.2	15.7	–	–	–	–	–
O=C1CCC(N2Cc3c(ccc(CNC(=O)Nc4ccc(Br)c(Cl)c4)c3O)C2=O)C(=O)N1 (stereo not shown) [IG-40, 1-(4-bromo-3-chlorophenyl)-3-((2-(2,6-dioxopiperidin-3-yl)-4-hydroxy-1-oxoisoindolin-5-yl)methyl)urea]	–	–	21.3	–	–	–	–	–
O=C1CCC(N2Cc3c(ccc(CNC(=O)Nc4ccc(I)c(Cl)c4)c3O)C2=O)C(=O)N1 (stereo not shown) [IG-41, 1-(3-chloro-4-iodophenyl)-3-((2-(2,6-dioxopiperidin-3-yl)-4-hydroxy-1-oxoisoindolin-5-yl)methyl)urea]	25	–	17.1	–	–	–	–	–
Cc1ccc(NC(=O)NCc2ccc3c(c2)CN(C2CCC(=O)NC2=O)C3=O)cc1Cl (stereo not shown) [IG-1, 1-(3-chloro-4-methyl-phenyl)-3-[[2-(2,6-dioxo-3-piperidyl)-1-oxo-isoindolin-5-yl]methyl]urea]	10.8	1.23	1.77	1.48	3.24 ± 2.18	101 ± 4.45	< 0.7	95.5 ± 4.9
CNCCOCCc1ccc(NC(=O)NCc2ccc3c(c2)CN(C2CCC(=O)NC2=O)C3=O)cc1Cl (stereo not shown) [IG-3, 1-(3-chloro-4-(2-(2-(methylamino)ethoxy)ethyl)phenyl)-3-((2-(2,6-dioxopiperidin-3-yl)-1-oxoisoindolin-5-yl)methyl)urea]	3010	66.4	77.5	–	345 ± 135	79.4 ± 3.63	185	78.2
Cc1ccc(NC(=O)NCc2cc3c(cc2O)C(=O)N(C2CCC(=O)NC2=O)C3)cc1Cl (stereo not shown) [IG-36, 1-(3-chloro-4-methylphenyl)-3-((2-(2,6-dioxopiperidin-3-yl)-6-hydroxy-1-oxoisoindolin-5-yl)methyl)urea]	120	4.95	3.5	–	660 ± 997	78.5 ± 8.18	4.62	91.8
Cc1ccc(NC(=O)NCc2ccc3c(c2O)CN(C2CCC(=O)NC2=O)C3=O)cc1C(C)C (stereo not shown) [IG-50]	–	0.75	1.38	1.63	6.21	105	< 0.645	99.6 ± 0.614
CC(C)(C)c1ccccc1NC(=O)NCc1ccc2c(c1O)CN(C1CCC(=O)NC1=O)C2=O (stereo not shown) [IG-28, 1-(2-(tert-butyl)phenyl)-3-((2-(2,6-dioxopiperidin-3-yl)-4-hydroxy-1-oxoisoindolin-5-yl)methyl)urea]	22.5	–	–	–	46.9	94.2	5.2	90.2
CC(C)(C)c1ccc(NC(=O)NCc2ccc3nnn(C4CCC(=O)NC4=O)c(=O)c3c2)c(O)c1 (stereo not shown) [IG-49, 1-(4-(tert-butyl)-2-hydroxyphenyl)-3-((3-(2,6-dioxopiperidin-3-yl)-4-oxo-3,4-dihydrobenzo[d][1,2,3]triazin-6-yl)methyl)urea]	–	–	41.7	–	–	–	–	–
CNCCOCCc1ccc(NC(=O)CCc2ccc3c(c2)CN(C2CCC(=O)NC2=O)C3=O)cc1Cl (stereo not shown) [IG-2, N-(3-chloro-4-(2-(2-(methylamino)ethoxy)ethyl)phenyl)-3-(2-(2,6-dioxopiperidin-3-yl)-1-oxoisoindolin-5-yl)propenamide]	> 10000	> 10000	> 10000	–	–	< 5	–	–
Cc1ccc(NC(=O)NCc2ccc3c(c2O)CN(C2CCC(=O)NC2=O)C3=O)cc1Cl (stereo not shown) [IG-15, 1-(3-chloro-4-methylphenyl)-3-((2-(2,6-dioxopiperidin-3-yl)-4-hydroxy-1-oxoisoindolin-5-yl)methyl)urea]	54.9	4.25	5.19	–	35.8 ± 20.4	79.2 ± 9.1	< 2.26	91.1 ± 3.35
Cc1c(Cl)cc(NC(=O)NCc2ccc3c(c2)CN(C2CCC(=O)NC2=O)C3=O)cc1N1CCOC1=O (stereo not shown) [IG-54, 1-(3-chloro-4-methyl-5-(2-oxooxazolidin-3-yl)phenyl)-3-((2-(2,6-dioxopiperidin-3-yl)-1-oxoisoindolin-5-yl)methyl)urea]	–	6.9	14.5	–	–	–	–	–
O=C1CCC(N2Cc3c(ccc(CNC(=O)Nc4ccc5ccccc5c4)c3O)C2=O)C(=O)N1 (stereo not shown) [IG-39, 1-((2-(2,6-dioxopiperidin-3-yl)-4-hydroxy-1-oxoisoindolin-5-yl)methyl)-3-(naphthalen-2-yl)urea]	–	–	14.1	–	81.4	69.4	42.7	77.4
Cc1ccc(C(=O)C(=O)NCc2ccc3c(c2O)CN(C2CCC(=O)NC2=O)C3=O)cc1Cl (stereo not shown) [IG-37, 2-(3-chloro-4-methylphenyl)-N-((2-(2,6-dioxopiperidin-3-yl)-4-hydroxy-1-oxoisoindolin-5-y1)methyl)-2-oxoacetamide]	72.5	9.6	4.2	–	139	70.9	7.88	95.2
O=C1CCC(N2Cc3c(ccc(CNC(=O)Nc4cccc5ccccc45)c3O)C2=O)C(=O)N1 (stereo not shown) [IG-38, 1-((2-(2,6-dioxopiperidin-3-yl)-4-hydroxy-1-oxoisoindolin-5-yl)methyl)-3-(naphthalen-1-yl)urea]	35.9	–	–	–	113	93.7	10.6	94.1
Cc1ccc(NC(=O)NCc2ccc3c(c2)CN(C2CCC(=O)NC2=O)C3=O)cc1O (stereo not shown) [IG-12, 1-((2-(2,6-dioxopiperidin-3-yl)-1-oxoisoindolin-5-yl)methyl)-3-(3-hydroxy-4-methylphenyl)urea]	1250	–	–	–	118 ± 35	96.8 ± 4.12	52.2	98.3
O=C1CCC(N2Cc3c(ccc(CNC(=O)C(F)(F)c4ccc(Cl)cc4)c3O)C2=O)C(=O)N1 (stereo not shown) [IG-52, 2-(4-chlorophenyl)-N-((2-(2,6-dioxopiperidin-3-yl)-4-hydroxy-1-oxoisoindolin-5-yl)methyl)-2,2-difluoroacetamide]	–	> 2000	443	–	–	–	–	–
